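Where inhibition never reached the appropriate level, the endpoint shown equals the highest concentration tested. Otherwise, values were interpolated linearly from a five-concentration, 48-hour dose response in 96-well plates. Abbreviation: GI50, concentration required for 50% inhibition of growth.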 Calls of active or inactive are those of the source. Cut-off read from the data, not from the text of the source: active = GI50 up to about 1.1 µM and inactive = higher.
Legend:
Assay in all cases: NCI tumour cell line growth inhibition, 48 h
A498 = system: A498
M14 = system: M14
OVCAR-3 = system: OVCAR-3
786-0 = system: 786-0
HCT-15 = system: HCT-15
NCI/ADR-RES = system: NCI/ADR-RES
RPMI-8226 = system: RPMI-8226
KM12 = system: KM12
NCI-H23 = system: NCI-H23
MOLT-4 = system: MOLT-4
OVCAR-8 = system: OVCAR-8
SN12C = system: SN12C
A549 = system: A549
NCI-H226 = system: NCI-H226
IGROV-1 = system: IGROV-1
CAKI-1 = system: CAKI-1
COLO 205 = system: COLO 205
K562 = system: K562
MCF7 = system: MCF7
MDA-MB-231 = system: MDA-MB-231
U-251 = system: U-251
SNB-75 = system: SNB-75
RXF 393 = system: RXF 393
MDA-MB-435 = system: MDA-MB-435
ACHN = system: ACHN
SK-MEL-2 = system: SK-MEL-2
Malme-3M = system: Malme-3M
UACC-62 = system: UACC-62
HT-29 = system: HT-29
SK-MEL-28 = system: SK-MEL-28
NCI-H522 = system: NCI-H522
OVCAR-4 = system: OVCAR-4
SF-295 = system: SF-295
SR = system: SR
UACC-257 = system: UACC-257
PC-3 = system: PC-3
HCT-116 = system: HCT-116
T47D = system: T47D
SK-OV-3 = system: SK-OV-3
SF-539 = system: SF-539
MDA-N = system: MDA-N
DU-145 = system: DU-145
SW-620 = system: SW-620
BT-549 = system: BT-549
OVCAR-5 = system: OVCAR-5
EKVX = system: EKVX
LOX IMVI = system: LOX IMVI
SNB-19 = system: SNB-19
HOP-92 = system: HOP-92
HOP-62 = system: HOP-62
Hs-578T = system: Hs-578T
SF-268 = system: SF-268
TK-10 = system: TK-10
SK-MEL-5 = system: SK-MEL-5
NCI-H460 = system: NCI-H460
UO-31 = system: UO-31
CCRF-CEM = system: CCRF-CEM
HCC 2998 = system: HCC 2998
HL-60 = system: HL-60

Structure (SMILES): Cc1ncc(CSc2ccccc2N)c(CO)c1O
- GI50 (A498): > 100 µM (inactive)
- GI50 (M14): > 100 µM (inactive)
- GI50 (OVCAR-3): > 100 µM (inactive)
- GI50 (786-0): > 100 µM (inactive)
- GI50 (HCT-15): > 100 µM
- GI50 (NCI/ADR-RES): > 100 µM (inactive)
- GI50 (RPMI-8226): > 100 µM (inactive)
- GI50 (KM12): > 100 µM (inactive)
- GI50 (NCI-H23): > 100 µM (inactive)
- GI50 (MOLT-4): > 100 µM (inactive)
- GI50 (OVCAR-8): > 100 µM (inactive)
- GI50 (SN12C): > 100 µM (inactive)
- GI50 (A549): > 100 µM (inactive)
- GI50 (NCI-H226): > 100 µM (inactive)
- GI50 (IGROV-1): > 100 µM (inactive)
- GI50 (CAKI-1): > 100 µM (inactive)
- GI50 (COLO 205): > 100 µM (inactive)
- GI50 (K562): > 100 µM (inactive)
- GI50 (MCF7): > 100 µM (inactive)
- GI50 (MDA-MB-231): > 100 µM (inactive)
- GI50 (U-251): > 100 µM (inactive)
- GI50 (SNB-75): > 100 µM (inactive)
- GI50 (RXF 393): > 100 µM (inactive)
- GI50 (MDA-MB-435): > 100 µM (inactive)
- GI50 (ACHN): > 100 µM (inactive)
- GI50 (SK-MEL-2): > 100 µM (inactive)
- GI50 (Malme-3M): > 100 µM (inactive)
- GI50 (UACC-62): 65.8 µM (inactive)
- GI50 (HT-29): > 100 µM (inactive)
- GI50 (SK-MEL-28): > 100 µM (inactive)
- GI50 (NCI-H522): > 100 µM (inactive)
- GI50 (OVCAR-4): > 100 µM (inactive)
- GI50 (SF-295): > 100 µM (inactive)
- GI50 (SR): > 100 µM (inactive)
- GI50 (UACC-257): > 100 µM (inactive)
- GI50 (PC-3): > 100 µM (inactive)
- GI50 (HCT-116): > 100 µM (inactive)
- GI50 (T47D): > 100 µM (inactive)
- GI50 (SK-OV-3): > 100 µM (inactive)
- GI50 (SF-539): > 100 µM (inactive)
- GI50 (MDA-N): > 100 µM (inactive)
- GI50 (DU-145): > 100 µM (inactive)
- GI50 (SW-620): > 100 µM (inactive)
- GI50 (BT-549): > 100 µM (inactive)
- GI50 (OVCAR-5): > 100 µM (inactive)
- GI50 (EKVX): > 100 µM (inactive)
- GI50 (LOX IMVI): > 100 µM (inactive)
- GI50 (SNB-19): > 100 µM (inactive)
- GI50 (HOP-92): > 100 µM (inactive)
- GI50 (HOP-62): > 100 µM (inactive)
- GI50 (Hs-578T): > 100 µM (inactive)
- GI50 (SF-268): > 100 µM (inactive)
- GI50 (TK-10): > 100 µM (inactive)
- GI50 (SK-MEL-5): > 100 µM (inactive)

Structure (SMILES): COc1cc(OC)c2c(=O)c(O)c(-c3ccc(OC)c(OC)c3)oc2c1
- GI50 (A498): 10.3 µM (inactive)
- GI50 (M14): 9.4 µM (inactive)
- GI50 (OVCAR-3): 3.56 µM (inactive)
- GI50 (786-0): 6.87 µM (inactive)
- GI50 (HCT-15): 3.08 µM
- GI50 (NCI-H460): 3.94 µM (inactive)
- GI50 (NCI/ADR-RES): 2.86 µM (inactive)
- GI50 (RPMI-8226): 4.72 µM (inactive)
- GI50 (KM12): 7.29 µM (inactive)
- GI50 (NCI-H23): 11.1 µM (inactive)
- GI50 (MOLT-4): 2.89 µM (inactive)
- GI50 (OVCAR-8): 3.83 µM (inactive)
- GI50 (SN12C): 6.28 µM (inactive)
- GI50 (A549): 5.85 µM (inactive)
- GI50 (NCI-H226): 9.4 µM (inactive)
- GI50 (IGROV-1): 4.86 µM (inactive)
- GI50 (CAKI-1): 4.1 µM (inactive)
- GI50 (COLO 205): 4.84 µM (inactive)
- GI50 (K562): 5.25 µM (inactive)
- GI50 (MCF7): 4.02 µM (inactive)
- GI50 (MDA-MB-231): 5.28 µM (inactive)
- GI50 (U-251): 4.94 µM (inactive)
- GI50 (SNB-75): 7.59 µM (inactive)
- GI50 (RXF 393): 8.99 µM (inactive)
- GI50 (MDA-MB-435): 22.6 µM (inactive)
- GI50 (ACHN): 4.36 µM (inactive)
- GI50 (Malme-3M): > 28.1 µM (inactive)
- GI50 (UACC-62): 3.43 µM (inactive)
- GI50 (HT-29): 28.2 µM (inactive)
- GI50 (SK-MEL-28): > 25.2 µM (inactive)
- GI50 (UO-31): 8.85 µM (inactive)
- GI50 (NCI-H522): 4.23 µM (inactive)
- GI50 (OVCAR-4): 0.607 µM (active)
- GI50 (SF-295): 5.37 µM (inactive)
- GI50 (CCRF-CEM): 3.1 µM (inactive)
- GI50 (SR): 3.33 µM (inactive)
- GI50 (UACC-257): 5.25 µM (inactive)
- GI50 (PC-3): 3.92 µM (inactive)
- GI50 (HCT-116): 4.94 µM (inactive)
- GI50 (T47D): 4.97 µM (inactive)
- GI50 (SK-OV-3): 13.6 µM (inactive)
- GI50 (SF-539): 16.1 µM (inactive)
- GI50 (MDA-N): 47.8 µM (inactive)
- GI50 (DU-145): 8.28 µM (inactive)
- GI50 (HCC 2998): 4.26 µM (inactive)
- GI50 (SW-620): 7.8 µM (inactive)
- GI50 (BT-549): 0.755 µM (active)
- GI50 (OVCAR-5): 10.3 µM (inactive)
- GI50 (EKVX): 7.14 µM (inactive)
- GI50 (LOX IMVI): 3.78 µM (inactive)
- GI50 (SNB-19): 10.3 µM (inactive)
- GI50 (HOP-92): 2.99 µM (inactive)
- GI50 (HOP-62): 3.99 µM (inactive)
- GI50 (Hs-578T): 17.3 µM (inactive)
- GI50 (HL-60): 3.48 µM (inactive)
- GI50 (SF-268): 4.11 µM (inactive)
- GI50 (TK-10): 11.2 µM (inactive)
- GI50 (SK-MEL-5): 5.96 µM (inactive)
